Laboratory results: publication PMC7138916 (Pharmacology Research & Perspectives, 2020)
Read-outs that look alike come from different tables or passages of the source.

Legend:
[1] = Bidirectional permeability and efflux ratio in Caco‐2 cells; format: in vitro ADME, human; settings: human, Caco-2
[2] = Bidirectional permeability in parental MDCK cells; format: in vitro ADME, Canine; settings: dog, MDCK
[3] = test system: efflux transporters (eg, P‐gp, BCRP, MRPs); experiment: Classification as efflux transporter substrate
[4] = Rat pharmacokinetic study, IV single bolus; settings: male, Sprague-Dawley, in vivo, iv
[5] = test system: P‐glycoprotein; settings: digoxin efflux, human colon, cited from earlier work
[6] = test system: P‐glycoprotein; settings: digoxin efflux, rat colon; cited from earlier work

C[C@H]1O[C@@H](O[C@H]2[C@@H](O)C[C@H](O[C@H]3[C@@H](O)C[C@H](O[C@H]4CC[C@@]5(C)[C@H](CC[C@@H]6[C@@H]5C[C@@H](O)[C@]5(C)[C@@H](C7=CC(=O)OC7)CC[C@]65O)C4)O[C@@H]3C)O[C@@H]2C)C[C@H](O)[C@@H]1O [Digoxin, digoxin]
Papp A→B at 2 h, 5 μmol/L [1]: 0.477 ± 0.088 ×10⁻⁶ cm/s | Papp B→A at 2 h, 5 μmol/L [1]: 23 ± 1.6 ×10⁻⁶ cm/s | Papp A→B at 2 h, 1 μmol/L [2]: 2.22 ± 0.34 ×10⁻⁶ cm/s | Papp B→A at 2 h, 1 μmol/L [2]: 2.73 ± 0.45 ×10⁻⁶ cm/s | Papp at 2 h, 1 μmol/L [2]: 2.48 ± 0.46 ×10⁻⁶ cm/s | Efflux transporter substrate ([3]; Yes/No): Yes | Class (based on membrane permeability and ER value) ([3]; parental MDCK, MDR1‐MDCK, and Caco‐2 cell lines): Class II | Vd [4]: 0.376 ± 0.013 L/kg | clearance [4]: 9.1 ± 1.3 mL/min/kg | half-life [4]: 1.3 ± 0.26 h | J max (maximal net flux) [5]: 3.1 ± 0.8 nmol/h/cm^2 | EC50 ([5]; read-out: EC50 (the concentration at which half‐maximal flux was achieved)): 58.7 ± 15.5 µM | J max (maximal net flux) [6]: 2.2 ± 0.3 nmol/h/cm^2
